Data published in US10167518B2, “Methods of stratifying patients for treatment with retinoic acid receptor-alpha agonists” (Syros Pharmaceuticals, Inc., priority 2015, dated 2019).
pEC50: −log10 of the molar value.

Experiments:
RAR beta = target: T1, RAR beta (Homo sapiens, UniProt P10826); assay: SelectScreen Nuclear Profiling, agonist specificity for RAR beta; assay type: cell-based
T1 sequence (P10826 1-455): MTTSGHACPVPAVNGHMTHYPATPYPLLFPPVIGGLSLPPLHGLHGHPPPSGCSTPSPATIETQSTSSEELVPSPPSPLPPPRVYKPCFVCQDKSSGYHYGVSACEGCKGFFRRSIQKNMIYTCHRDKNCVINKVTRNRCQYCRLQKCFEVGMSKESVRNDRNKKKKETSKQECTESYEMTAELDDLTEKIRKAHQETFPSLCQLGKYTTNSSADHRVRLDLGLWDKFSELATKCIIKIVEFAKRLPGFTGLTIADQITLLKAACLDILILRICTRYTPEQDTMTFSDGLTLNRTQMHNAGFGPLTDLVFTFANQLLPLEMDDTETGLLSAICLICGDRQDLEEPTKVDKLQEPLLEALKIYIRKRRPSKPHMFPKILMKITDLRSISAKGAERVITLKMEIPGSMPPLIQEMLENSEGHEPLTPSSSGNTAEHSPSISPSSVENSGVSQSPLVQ
Description: (§1) The agonist specificity of the various test compounds for each type of RaR is assessed at Life Technologies using their SelectScreen® Nuclear Profiling Services.

RAR alpha = target: T2, RAR alpha (Homo sapiens, UniProt P10276); assay: SelectScreen Nuclear Profiling, agonist specificity for RAR alpha; assay type: cell-based; settings: for pEC50 / RAR alpha % max: agonist specificity, SelectScreen; for RAR-a/RAR-g Selectivity % max: ratio of RAR alpha to RAR gamma % max; for RAR-a/RAR-g Selectivity EC50: ratio of RAR gamma to RAR alpha EC50
T2 sequence (P10276 1-462): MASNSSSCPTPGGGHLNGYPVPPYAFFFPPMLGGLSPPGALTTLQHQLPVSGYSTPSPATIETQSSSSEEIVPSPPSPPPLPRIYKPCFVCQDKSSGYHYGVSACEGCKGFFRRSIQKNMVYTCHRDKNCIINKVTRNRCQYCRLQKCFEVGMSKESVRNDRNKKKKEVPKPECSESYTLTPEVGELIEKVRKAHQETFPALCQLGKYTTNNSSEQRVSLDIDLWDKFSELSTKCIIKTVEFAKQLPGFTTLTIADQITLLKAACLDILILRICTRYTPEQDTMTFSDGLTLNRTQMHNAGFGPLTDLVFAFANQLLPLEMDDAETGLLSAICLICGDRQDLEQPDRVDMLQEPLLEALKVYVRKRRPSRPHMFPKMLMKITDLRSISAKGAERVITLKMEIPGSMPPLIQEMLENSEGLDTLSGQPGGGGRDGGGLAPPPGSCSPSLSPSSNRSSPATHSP
Description: as §1

RAR gamma = target: T3, RAR gamma (Homo sapiens, UniProt P13631); assay: SelectScreen Nuclear Profiling, agonist specificity for RAR gamma; assay type: cell-based
T3 sequence (P13631 1-454): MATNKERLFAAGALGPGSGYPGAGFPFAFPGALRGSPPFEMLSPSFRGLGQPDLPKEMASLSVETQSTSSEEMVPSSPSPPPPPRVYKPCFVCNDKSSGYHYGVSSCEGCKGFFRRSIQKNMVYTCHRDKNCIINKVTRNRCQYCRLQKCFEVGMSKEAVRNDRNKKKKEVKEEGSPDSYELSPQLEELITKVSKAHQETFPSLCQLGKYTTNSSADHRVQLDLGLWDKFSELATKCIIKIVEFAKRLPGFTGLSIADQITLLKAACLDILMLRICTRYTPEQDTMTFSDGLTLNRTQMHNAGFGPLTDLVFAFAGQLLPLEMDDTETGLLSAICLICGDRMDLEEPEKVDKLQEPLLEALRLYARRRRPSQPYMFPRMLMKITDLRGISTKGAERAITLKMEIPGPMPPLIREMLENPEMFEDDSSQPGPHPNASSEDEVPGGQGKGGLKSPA
Description: as §1

[1] = system: AM5512 AML patient sample-derived xenograft; assay: AML patient sample-derived xenograft AM5512, % human CD45+ cells and survival
Description: AM5512 xenograft mice are prepared as described above.

[2] = system: AM7440 AML patient sample-derived xenograft; assay: AML patient sample-derived xenograft AM7440, % human CD45+ cells; assay type: in vivo, mice; settings: 6 mg per kg daily oral
Description: (§2) Different AML patient sample (AM8096, AM5512, AM7577 and AM7440)-derived xenograft models in BALB/c nude immunocompromised mice are prepared by Crown Biosciences (Beijing, China) essentially as follows.
(§3) Approximately 2×10^6 cells from each patient sample are suspended in 100 μL PBS and injected into separate mice (n=3 for each different patient sample and for the control) by IV tail injection. For AM5512, AM7577 and AM7440 xenografts, tumor burden is considered high enough to start treatment when the concentration of human CD45^+ cells reaches ˜1-5% in the animal's peripheral blood. Human CD45^+ cells are detected in mouse blood (obtained via eye bleeds) using a fluorescence activated cell sorter and FITC anti-human CD45 (Biolegend, Cat#304037). For AM8096 xenografts, treatment is begun 40 days after injection of cells.
(§4) Human CD45^+ cell levels in peripheral blood from the treated animals and control animals are measured once a week.

[3] = system: breast cancer cell lines (SKBR3, Au565, ZR75, Hcc1143); assay: Cell viability screening of breast cancer cell lines (ATPlite/CyQuant); assay type: cell-based; settings: four breast cancer cell lines, 5 days of treatment, FIG. 7
Description: All cell lines are obtained from ATCC and cultured at 37° C. in 5% CO2. All are grown in RPMI1640 supplemented with 10 mM HEPES buffer, 2 mM L-glutamine, 50 U/mL penicillin, 50 […] and 10% fetal bovine serum (FBS, all from Invitrogen). Cells lines included AU565, SKBR3, T47D, HCC1143, MCF7, ZR-75-1, and HCC1569.
On the day of the experiment, cells are homogenized using Accumax (EMD Millipore), counted, and adjusted to 40,000 cells/ml for breast cancer lines and 60,000 cells/mL for AML in appropriate growth media. Using a Biotek EL406, 50 μl of cells are distributed into white (ATPlite) or black (CyQuant) 384-well plates (Thermo). Cells are returned to 37° C. incubator to allow adhesion. After three hours, compounds are added to plates using a 20 nl 384-well pin transfer manifold on a Janus workstation. […]
Cell viability is read out using ATPlite (Perkin Elmer) or CyQuant (Life Technologies). […] Plates are incubated for 15 min at room temperature before the luminescence signal was read on an Envision Plate Reader (Perkin Elmer). […] Reagent are added using a multichannel pipet and plates are replaced in incubator for 30 minutes prior to readout on an Envision Plate Reader (Perkin Elmer).
Data acquired as described is stored and grouped in Microsoft's Excel and analyzed using GraphPad Prism Software. […]

[4] = system: AML cell lines (SigM5, OCI M1, MV411, HEL, Kasumi); assay: Cell viability screening of AML cell lines (ATPlite/CyQuant); assay type: cell-based
Description: On the day of the experiment, cells are homogenized using Accumax (EMD Millipore), counted, and adjusted to 40,000 cells/ml for breast cancer lines and 60,000 cells/mL for AML in appropriate growth media. Using a Biotek EL406, 50 μl of cells are distributed into white (ATPlite) or black (CyQuant) 384-well plates (Thermo). Cells are returned to 37° C. incubator to allow adhesion. After three hours, compounds are added to plates using a 20 nl 384-well pin transfer manifold on a Janus workstation. Stocks are arrayed in 10 point quadruplicate dose response in DMSO stock in 384-well compound plates. After addition of compound, plates are incubated for five or ten days in a 37° C. incubator.
Cell viability is read out using ATPlite (Perkin Elmer) or CyQuant (Life Technologies). For ATPlite, plates are removed from the incubator and brought to room temperature prior to use. Lyophilized powder of ATPlite reagent is resuspended in lysis buffer and diluted 1:2 with distilled water. 25 μL of this solution is added to each well using the Biotek liquid handler. Plates are incubated for 15 min at room temperature before the luminescence signal was read on an Envision Plate Reader (Perkin Elmer). For CyQuant, reagents are mixed as per manufacturer's instructions in PBS (Gibco). Reagent are added using a multichannel pipet and plates are replaced in incubator for 30 minutes prior to readout on an Envision Plate Reader (Perkin Elmer).
Data acquired as described is stored and grouped in Microsoft's Excel and analyzed using GraphPad Prism Software. […] Edge wells were excluded.

[5] = system: AM7577 AML patient sample-derived xenograft; assay: AML patient sample-derived xenograft AM7577, % human CD45+ cells; assay type: in vivo, mice; settings: 6 mg per kg daily oral
Description: as §2, §3, §4

[6] = system: AM8096 AML patient sample-derived xenograft; assay: AML patient sample-derived xenograft AM8096, % human CD45+ cells; assay type: in vivo, mice; settings: 6 mg per kg daily oral, after 35 days
Description: as §2, §3, §4

[7] = system: HCC1954 tumor cells xenograft; assay: HCC1954 breast cancer cell line-derived xenograft, tumor volume; assay type: in vivo, mice
Description: Breast cancer cell line (HCC1954)-derived xenograft models in BALB/c nude immunocompromised mice are prepared by Crown Biosciences (Beijing, China) essentially as follows.
Six to eight week old BALB/c nude immunocompromised mice, weighing between 18-20 g are inoculated subcutaneously at the right flank region with HCC1954 tumor cells (5×10^6) in 0.1 ml of PBS (1:1 matrigel) for tumor development. […] The final dosage in mice is 6 mg per kg per day in the high dose arm (n=10) and 3 mg per kg per day in the low dose arm (n=10) in a 10 ml/kg volume. […] Tumor volume is measured twice weekly by caliper measurement.

COc1ccc(-c2ccc3cc(C(=O)O)ccc3c2)cc1C12CC3CC(CC(C3)C1)C2 [Adapalene]
pEC50 (RAR beta): 8.01
RAR beta % max (RAR beta): 69.36%
pEC50 (RAR alpha): 8.30
RAR alpha % max (RAR alpha): 102.2%
RAR gamma % max (RAR gamma): 87.7%

CC1=C(/C=C/C(C)=C/C=C/C(C)=C/C(=O)O)C(C)(C)CCC1 [Tretinoin, all-trans retinoic acid]
RAR beta % max (RAR beta): 92.77%
RAR alpha % max (RAR alpha): 149.4%
% CD45+ cells vs vehicle control ([1]; 4 mg/kg BID, after 14 days): reduction in % CD45^+ cells
survival ([1]; 4 mg/kg BID, n=7): none of those mice survived past day 21
RAR gamma % max (RAR gamma): 99.37%

CC1(C)CC=C(c2cnc3ccccc3c2)c2cc(C(=O)Nc3ccc(C(=O)O)cc3)ccc21 [BMS195614]
RAR beta % max (RAR beta): 0%
pEC50 (RAR alpha): 5.87
RAR alpha % max (RAR alpha): −31.01%
pEC50 (RAR gamma): 6.36
RAR gamma % max (RAR gamma): −14.57%

CC1(C)CC=C(C#Cc2ccccc2)c2cc(/C=C/c3ccc(C(=O)O)cc3)ccc21 [BMS493]
RAR beta % max (RAR beta): 0%
pEC50 (RAR alpha): 7.56
RAR alpha % max (RAR alpha): −3.417%
pEC50 (RAR gamma): 6.29
RAR gamma % max (RAR gamma): −13.41%

CC1(C)C(=O)C(C)(C)c2cc(C(=O)Nc3ccc(C(=O)O)cc3)ccc21 [BMS753]
pEC50 (RAR beta): 6.15
RAR beta % max (RAR beta): 6%
pEC50 (RAR alpha): 8.84
RAR alpha % max (RAR alpha): 122.2%
specificity for RARA over RaR-γ (RAR alpha; comparison among tested compounds): greatest specificity for RARA over RaR-γ
RAR-a/RAR-g Selectivity % max (RAR alpha): 6.1624
RAR-a/RAR-g Selectivity EC50 (RAR alpha): 94.8396
pEC50 (RAR gamma): 6.87
RAR gamma % max (RAR gamma): 19.83%

CC1(C)CCC(C)(C)c2cc(C(=O)Nc3ccc(C(=O)O)cc3)ccc21 [AM580]
RAR beta % max (RAR beta): 78.24%
RAR gamma % max (RAR gamma): 87.06%

CC1(C)CCSc2ccc(C#Cc3ccc(C(=O)O)cn3)cc21 [Tazarotenic, Tazarotenic acid]
pEC50 (RAR beta): 8.29
RAR beta % max (RAR beta): 71.88%
pEC50 (RAR alpha): 9.45
RAR alpha % max (RAR alpha): 121.4%
RAR-a/RAR-g Selectivity % max (RAR alpha): 1.5499
RAR-a/RAR-g Selectivity EC50 (RAR alpha): 3.1172
pEC50 (RAR gamma): 8.96
RAR gamma % max (RAR gamma): 78.33%

CC1(C)CCC(C)(C)c2cc(NC(=O)c3ccc(C(=O)O)cc3)ccc21 [tamibarotene]
RAR beta % max (RAR beta): 114.9%
tumor volume (overall, blood, bone marrow, spleen) vs vehicle [2]: no significant reduction
sensitivity order of breast cancer cell lines (viability) [3]: SKBR3>Au565>ZR75>Hcc1143
responsiveness of cell line ([4]; HEL cells): non-responsive
responsiveness of cell line ([4]; MV411 cells): tamibarotene-responsive
sensitivity order of AML cell lines (viability) ([4]; SigM5, MV411, HEL, Kasumi, FIGS. 23A-B): SigM5>MV411>HEL=Kasumi
sensitivity order of AML cell lines (viability) ([4]; three AML cell lines, 5 days of treatment, FIG. 9): SigM5>OCI M1>HEL
% human CD45+ cells (overall, blood, bone marrow, spleen) vs vehicle [5]: no significant reduction
% CD45+ cells vs vehicle control and ATRA-treated animals ([1]; 3 mg/kg BID, after 28 days): significant reduction
animals surviving the course of the experiment ([1]; 3 mg/kg BID, n=7): 5 of the 7
total % of CD45+ cells and % in blood, bone marrow and spleen vs vehicle ([1]; 6 mg per kg daily oral, after 35 days): significant reduction
total % of CD45+ cells and % in blood, bone marrow and spleen vs vehicle [6]: significant reduction
tumor volume ([7]; 3 and 6 mg per kg per day, QD PO, up to 21 days): reduces tumor volume in this model in a dose-dependent manner
reduction in tumor volume, p (t-test, Welch's correction) ([7]; high dose arm, 6 mg per kg per day QD PO): 0.0048
reduction in tumor volume, p (t-test, Welch's correction) ([7]; low dose arm, 3 mg per kg per day QD PO): 0.0552
RAR gamma % max (RAR gamma): 106.1%
